{"source": "patent US9695155B2", "about": "“Herbicidal substituted pyrimidinyloxy benzene compounds” (E. I. DU PONT DE NEMOURS AND COMPANY, priority 2013, dated 2017)", "key": {"[1]": {"test_system": "barnyardgrass", "experiment": "Test A preemergence", "format": "in vivo, Echinochloa crus-galli", "settings": "Echinochloa crus-galli, pre-emergence, 240 h", "outline": "(§1)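 Visual injury scored 0–100 (100 = complete control) against untreated controls about 10 days after treatment in a greenhouse. Test chemicals, formulated with surfactant in non-phytotoxic solvent, were sprayed on soil preemergence or on 2-10 cm, one- to two-leaf plants postemergence.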"}, "[2]": {"test_system": "giant foxtail", "experiment": "Test A preemergence", "format": "in vivo, Setaria faberii", "settings": "Setaria faberi, pre-emergence, 240 h", "outline": "as §1"}, "[3]": {"test_system": "velvetleaf", "experiment": "Test A preemergence", "format": "in vivo, Abutilon theophrasti", "outline": "as §1"}, "[4]": {"test_system": "blackgrass", "experiment": "Test C preemergence", "format": "in vivo, Alopecurus myosuroides", "settings": "Alopecurus myosuroides, pre-emergence", "outline": "(§2)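 Visual injury score versus untreated controls, 0 = no effect, 100 = complete control, taken 13 to 15 days after treatment in the greenhouse. Pre-emergence pots held loam/sand; post-emergence plants grew in sphagnum peat/vermiculite mix and were sprayed at the 1- to 4-leaf stage.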"}, "[5]": {"test_system": "corn", "experiment": "Test C preemergence", "format": "in vivo, Zea mays", "settings": "Zea mays, pre-emergence", "outline": "as §2"}, "[6]": {"test_system": "morningglory", "experiment": "Test C preemergence", "format": "in vivo, Ipomoea coccinea", "settings": "Ipomoea, pre-emergence", "outline": "as §2"}, "[7]": {"test_system": "ragweed", "experiment": "Test C preemergence", "format": "in vivo, Ambrosia elatior", "settings": "Ambrosia artemisiifolia, pre-emergence", "outline": "as §2"}, "[8]": {"test_system": "soybean", "experiment": "Test C preemergence", "format": "in vivo, Glycine max", "settings": "Glycine max, pre-emergence", "outline": "as §2"}, "[9]": {"test_system": "barnyardgrass", "experiment": "Test C preemergence", "format": "in vivo, Echinochloa crus-galli", "settings": "Echinochloa crus-galli, pre-emergence", "outline": "as §2"}, "[10]": {"test_system": "oilseed rape", "experiment": "Test C preemergence", "format": "in vivo, Brassica napus", "settings": "Brassica napus, pre-emergence, preemergence, scale 0 (no effect) to 100 (complete control), read-out: Oilseed Rape plant response rating", "outline": "as §2"}}, "data": [{"smiles": "N#Cc1cccc(Oc2ncc(Cl)cn2)c1-n1cc(C(F)(F)F)cn1", "note": "[Compound 58, 3-[(5-chloro-2-pyrimidinyl)oxy]-2-[4-(trifluoromethyl)-1H-pyrazol-1-yl]benzonitrile]", "values": [{"measurement": "pest or weed control at 125 g/ha", "setting": "[1]; 125 g ai/ha, 0 to 100 scale where 0 is no effect and 100 is complete control, read-out: Plant response rating, Barnyardgrass", "result": 100, "unit": "%"}, {"measurement": "pest or weed control at 500 g/ha", "setting": "[1]; 500 g ai/ha, 0 to 100 scale, 0 no effect, 100 complete control, approx. 10 days, read-out: Barnyardgrass plant response rating", "result": 100, "unit": "%"}, {"measurement": "pest or weed control at 125 g/ha", "setting": "[2]; 125 g ai/ha, 0 to 100 scale where 0 is no effect and 100 is complete control, read-out: Plant response rating, Foxtail, Giant", "result": 100, "unit": "%"}, {"measurement": "pest or weed control at 500 g/ha", "setting": "[2]; 500 g ai/ha, 0 to 100 scale, 0 no effect, 100 complete control, approx. 10 days, read-out: Foxtail, Giant plant response rating", "result": 100, "unit": "%"}, {"measurement": "Plant response rating, Velvetleaf", "setting": "[3]; 125 g ai/ha, 0 to 100 scale where 0 is no effect and 100 is complete control", "result": 90}, {"measurement": "pest or weed control at 500 g/ha", "setting": "[3]; Abutilon theophrasti, pre-emergence, 240 h, 500 g ai/ha, 0 to 100 scale, 0 no effect, 100 complete control, approx. 10 days, read-out: Velvetleaf plant response rating", "result": 100, "unit": "%"}, {"measurement": "pest or weed control at 62 g/ha", "setting": "[4]; 62 g ai/ha, preemergence, scale 0 (no effect) to 100 (complete control), read-out: Blackgrass plant response rating", "result": 90, "unit": "%"}, {"measurement": "pest or weed control at 125 g/ha", "setting": "[4]; 125 g ai/ha, preemergence, scale 0 (no effect) to 100 (complete control), read-out: Blackgrass plant response rating", "result": 90, "unit": "%"}, {"measurement": "pest or weed control at 250 g/ha", "setting": "[4]; 250 g ai/ha, preemergence, scale 0 (no effect) to 100 (complete control), read-out: Blackgrass plant response rating", "result": 90, "unit": "%"}, {"measurement": "pest or weed control at 31 g/ha", "setting": "[4]; Preemergence, 31 g ai/ha, scale 0 to 100, 0 no effect, 100 complete control, read-out: Plant response rating, Blackgrass", "result": 90, "unit": "%"}, {"measurement": "plant injury at 62 g/ha", "setting": "[5]; 62 g ai/ha, preemergence, scale 0 (no effect) to 100 (complete control), read-out: Corn plant response rating", "result": 90, "unit": "%"}, {"measurement": "plant injury at 125 g/ha", "setting": "[5]; 125 g ai/ha, preemergence, scale 0 (no effect) to 100 (complete control), read-out: Corn plant response rating", "result": 98, "unit": "%"}, {"measurement": "plant injury at 250 g/ha", "setting": "[5]; 250 g ai/ha, preemergence, scale 0 (no effect) to 100 (complete control), read-out: Corn plant response rating", "result": 98, "unit": "%"}, {"measurement": "Corn plant response rating (crop injury, 0 = no effect, 100 = complete kill) at 31 g/ha", "setting": "[5]; Preemergence, 31 g ai/ha, scale 0 to 100, 0 no effect, 100 complete control", "result": 60, "unit": "%"}, {"measurement": "pest or weed control at 62 g/ha", "setting": "[6]; 62 g ai/ha, preemergence, scale 0 (no effect) to 100 (complete control), read-out: Morningglory plant response rating", "result": 100, "unit": "%"}, {"measurement": "pest or weed control at 125 g/ha", "setting": "[6]; 125 g ai/ha, preemergence, scale 0 (no effect) to 100 (complete control), read-out: Morningglory plant response rating", "result": 100, "unit": "%"}, {"measurement": "pest or weed control at 250 g/ha", "setting": "[6]; 250 g ai/ha, preemergence, scale 0 (no effect) to 100 (complete control), read-out: Morningglory plant response rating", "result": 100, "unit": "%"}, {"measurement": "pest or weed control at 31 g/ha", "setting": "[6]; Preemergence, 31 g ai/ha, scale 0 to 100, 0 no effect, 100 complete control, read-out: Plant response rating, Morningglory", "result": 100, "unit": "%"}, {"measurement": "pest or weed control at 62 g/ha", "setting": "[7]; 62 g ai/ha, preemergence, scale 0 (no effect) to 100 (complete control), read-out: Ragweed plant response rating", "result": 100, "unit": "%"}, {"measurement": "pest or weed control at 125 g/ha", "setting": "[7]; 125 g ai/ha, preemergence, scale 0 (no effect) to 100 (complete control), read-out: Ragweed plant response rating", "result": 100, "unit": "%"}, {"measurement": "pest or weed control at 250 g/ha", "setting": "[7]; 250 g ai/ha, preemergence, scale 0 (no effect) to 100 (complete control), read-out: Ragweed plant response rating", "result": 100, "unit": "%"}, {"measurement": "pest or weed control at 31 g/ha", "setting": "[7]; Preemergence, 31 g ai/ha, scale 0 to 100, 0 no effect, 100 complete control, read-out: Plant response rating, Ragweed", "result": 85, "unit": "%"}, {"measurement": "plant injury at 62 g/ha", "setting": "[8]; 62 g ai/ha, preemergence, scale 0 (no effect) to 100 (complete control), read-out: Soybean plant response rating", "result": 95, "unit": "%"}, {"measurement": "plant injury at 125 g/ha", "setting": "[8]; 125 g ai/ha, preemergence, scale 0 (no effect) to 100 (complete control), read-out: Soybean plant response rating", "result": 98, "unit": "%"}, {"measurement": "plant injury at 250 g/ha", "setting": "[8]; 250 g ai/ha, preemergence, scale 0 (no effect) to 100 (complete control), read-out: Soybean plant response rating", "result": 98, "unit": "%"}, {"measurement": "plant injury at 31 g/ha", "setting": "[8]; Preemergence, 31 g ai/ha, scale 0 to 100, 0 no effect, 100 complete control, read-out: Plant response rating, Soybean", "result": 90, "unit": "%"}, {"measurement": "pest or weed control at 62 g/ha", "setting": "[9]; 62 g ai/ha, preemergence, scale 0 (no effect) to 100 (complete control), read-out: Barnyardgrass plant response rating", "result": 100, "unit": "%"}, {"measurement": "pest or weed control at 125 g/ha", "setting": "[9]; 125 g ai/ha, preemergence, scale 0 (no effect) to 100 (complete control), read-out: Barnyardgrass plant response rating", "result": 100, "unit": "%"}, {"measurement": "pest or weed control at 250 g/ha", "setting": "[9]; 250 g ai/ha, preemergence, scale 0 (no effect) to 100 (complete control), read-out: Barnyardgrass plant response rating", "result": 100, "unit": "%"}, {"measurement": "pest or weed control at 31 g/ha", "setting": "[9]; Preemergence, 31 g ai/ha, scale 0 to 100, 0 no effect, 100 complete control, read-out: Plant response rating, Barnyardgrass", "result": 98, "unit": "%"}, {"measurement": "plant injury at 62 g/ha", "setting": "[10]; 62 g ai/ha", "result": 100, "unit": "%"}, {"measurement": "plant injury at 125 g/ha", "setting": "[10]; 125 g ai/ha", "result": 100, "unit": "%"}, {"measurement": "plant injury at 250 g/ha", "setting": "[10]; 250 g ai/ha", "result": 100, "unit": "%"}]}]}
